Test results as given in paper PMC10895678 (Journal of Medicinal Chemistry, 2024).
“And” between values parts separate entries of the source, which are not always exact repeats. Identical values can stand only once. Like-named read-outs stand apart in the source and are kept apart here.

Tests used:
BCG pTIC6-fbpC = assay type: cell-based, Mycobacterium bovis BCG
BCG = assay type: cell-based, Mycobacterium bovis BCG
M. tuberculosis H37Rv = experiment: Mycobacterial time kill experiments (total viable counts); assay type: cell-based, Mycobacterium tuberculosis; details: 96 μM, after 6 days of exposure
[1] = Mouse PK, multiple oral dosing of single compounds; assay type: in vivo, KM mice; details: for half-life / AUC(0-inf) / Cmax / Tmax: 30 mg/kg
Excerpt: Methods for combined single dosing (BGAz001–005) and dosing of single compounds multiple times (BGAz004 and BGAz005) are described in detail in the Supporting Information (PK Data).
Report on PK results of BGAz-004 by multiple oral dosing
7 Materials and instrument combined dosing
An MS2 Turnover type oscillator was purchased from IKA Work’s Guangzhou (China), and a 5415R ChromatographicanalyseswereconductedusinganAgilent1290InfinityIIhighperformanceliquidchromatography andAgilentTechnologies6470TripleQuadLC/MS.Propranolol(≥90%inpurity,internalstandard,IS)waspurchased fromtheSigmaChemicalCo.(China).Formicacid(HPLCgrade)andmethanol(HPLCgrade)werepurchasedfrom DIKMACo.(China).Allchemicalsandsolventswereanalyticalgrade.WaterwaspurifiedusingaMillipore(AK,USA) laboratoryultra-purewatersystem(0.2μmfilter).
KMmice,weighing25–35g(BeijingVitalRiverLaboratoryAnimalTechnologyCo.,Ltd.,China)wereutilisedforthe studies.The protocols were approved by the Animal Care and Use Committee, GIBH. Animals were maintained on standard animal chow and waterad libitum, in a climate-controlled room (23±1 °C 30–70% relative humidity, a minimumof tenexchangesof roomairperhouranda12hlight/darkcycle)foroneweekpriortoexperiments.
9 Pharmacokinetic studies
Compound BGAz-004 were dissolved in the solution containing DMSO (2%), ethanol (4%), Cremophor EL (4%) and ddH2O (90%).The mice were given solution with 30 mg/kg bygastric gavagefor 3 days.Whole blood samples (100μL)wereobtainedfromtheorbitalvenousplexusatthefollowingtimepointsafterthethirddaydosing:5,15,30 min and 1, 3, 5, 8, 24 hour. Whole blood samples were collected in heparinised tubes. The plasma fraction was immediately separated by centrifugation. The mice were humanely euthanasia by carbon dioxide 24 hours after […]
10 Plasma sample analysis
10.1 Standard curve sample preparation
ThecompoundsweredissolvedinDMSO(2mg/mL)anddilutedwithtoseriesconcentration(methanol:H 2O,1:1,10 μL) and blank plasma (50 μL) were added to 1.5 mL tubes and vortexed for 3 min, then acetonitrile-containing internalstandard(150μL)wasaddedandvortexedforafurther5min,andsubsequentlyspuninacentrifugeat13000 […]
10.2 Plasma and preparation
Plasmasampleswerepreparedusingaproteinprecipitationmethod.Solution(10μL,methanolH 2O,1:1)andplasma samples(50μL)wereaddedto1.5mLtubesandvortexfor3min,thenacetonitrile-containinginternalstandard(150 μL)wasaddedandvortexfor5min,andsubsequentlyspuninacentrifugeat13000× gfor40minat4°C.
Aftercentrifugation,supernatant(100μL)wastransferto96wellplatesandanalysedbyLC-MS/MSusinganAgilent 1290InfinityIIHPLCandanAgilentTechnologies6470TripleQuadLC/MS.
Report on PK results of BGAz-005 by multiple oral dosing
13 Materials and instrument combined dosing […]
fromtheSigmaChemicalCo.(China).Formicacid(HPLCgrade)andmethanol(HPLCgrade)werepurchased from […]
15 Pharmacokinetic studies
Compound BGAz-005 were dissolved in the solution containing DMSO (2%), ethanol (4%), Cremophor EL (4%) […]
16 Plasma sample analysis
16.1 Standard curve sample preparation
16.2 Plasma and preparation

M. smegmatis = experiment: Inhibition of macromolecular synthesis (radiolabeled precursor incorporation); assay type: cell-based, Mycobacterium smegmatis
Protocol: Inhibition of macromolecular biosynthesis was assayed by measuring the incorporation of radiolabeled precursors into DNA, RNA, protein, peptidoglycan, and fatty acids in the 10% trichloroacetic acid (TCA) extracts of cells exposed to azetidines. M. smegmatis were cultured in 7H9 media supplemented with 0.05% Tween-80 and grown to an OD600 of 0.4. Cultures (5 mL) were then transferred into sterile glass tubes and preincubated with 0× , 0.5× , 0.75× and 1 × MIC99 azetidines for 1 h at 37 °C with shaking. After preincubation, 10 μL of 500 nCi/μL [methyl-^3H]thymidine, 500 nCi/μL [5,6-^3H]uridine, 500 nCi/μL L-[4,5-^3H]leucine, 500 nCi/μL [^3H]meso-diaminopimelic acid, and 500 nCi/μL [^14C]acetic acid were added to cultures to measure synthesis of DNA, RNA, protein, peptidoglycan and lipids, respectively. All cultures were incubated for 36 h, and 100 μL samples were sacrificed at 6, 12, 24, and 36 h time points by the addition of 50 μL 30%TCA/70% ethanol in Eppendorf tubes. Tubes were incubated at room temperature for 60 min to allow for precipitation of macromolecular material. Samples were individually vacuum filtered using 0.025 μm membrane filters (VSWP01300, MF-Millipore) that were prewashed with 500 μL 70% ethanol. Samples were washed with 3 × 500 μL 5% TCA, followed by 2 × 95% ethanol. Filter papers were dried and combined with 5 mL of scintillation fluid before measuring radioactive counts.

BCG pTIC6-fbpA = assay type: cell-based, Mycobacterium bovis BCG
BCG pVV16-mmpL3 = assay type: cell-based, Mycobacterium bovis BCG
[2] = KM, mouse, plasma, multiple PO 30 mg/kg, times 3, mean of animals
[3] = multiple PO 30 mg/kg, times 3, mean of animals

Question: With `CNCC1CC(c2ccc(OC(F)(F)F)cc2)N1Cc1ccccc1OC(F)(F)F` (centres unmarked) [BGAz-005] as the molecule, how does the BCG pTIC6-fbpC MIC (BCG pTIC6-fbpC) read?
Answer: 50 µM

Question: What about the “increase in MIC upon overexpression of FbpC” value (BCG pTIC6-fbpC) of the same molecule?
Answer: two-fold increase

Question: And the “TMM and TDM in cell envelope lipids” value (BCG; 0.5 × MIC)?
Answer: significant reduction

Question: What about the “TMM and TDM in cell envelope lipids” value (BCG; concentrations beyond the MIC) of the same molecule?
Answer: complete loss

Question: What about the “reduction of total viable count” value (M. tuberculosis H37Rv) of the same molecule?
Answer: 3.28 ± 1.00 log10 CFU mL^–1

Question: And the half-life ([1]; KM, mouse, plasma, oral, mice, read-out: blood plasma half-life)?
Answer: > 72 h

Question: What about the AUC(0-inf) ([1]; KM, mouse, plasma, po, multiple PO 30 mg/kg, times 3, mean of animals, read-out: AUC(0-∞)) of the same molecule?
Answer: 82200 ng·h/mL

Question: And the Cmax ([1]; KM, mouse, plasma, po, multiple PO 30 mg/kg, times 3, mean of animals, read-out: Cmax)?
Answer: 1710 ng/mL

Question: And the Tmax ([1]; KM, mouse, plasma, po, multiple PO 30 mg/kg, times 3, mean of animals, read-out: Tmax)?
Answer: 0.875 h

Question: What about the half-life ([1]; KM, mouse, plasma, po, multiple PO 30 mg/kg, times 3, mean of animals, read-out: t1/2z (converted)) of the same molecule?
Answer: 80.4 h

Question: What about the AUC(0-inf) ([1]; KM, mouse, plasma, po, multiple PO, times 3, 30 mg/kg, summary table, read-out: AUC(0-∞)) of the same molecule?
Answer: 82200 ng·h/mL

Question: And the Cmax ([1]; KM, mouse, plasma, po, multiple PO, times 3, 30 mg/kg, summary table, read-out: Cmax)?
Answer: 1710 ng/mL

Question: What about the half-life ([1]; KM, mouse, plasma, po, multiple PO, times 3, 30 mg/kg, summary table, read-out: T1/2 (converted)) of the same molecule?
Answer: 80.4 h

Question: And the Tmax ([1]; KM, mouse, plasma, po, multiple PO, times 3, 30 mg/kg, summary table, read-out: Tmax)?
Answer: 0.875 h

Question: And the AUC(0-inf) ([1]; KM, mouse, plasma, po, multiple daily dosing 3 × 30 mg/kg PO, read-out: AUC0-inf)?
Answer: 82200 ng·h/mL

Question: What about the Cmax ([1]; KM, mouse, plasma, po, multiple daily dosing 3 × 30 mg/kg PO, read-out: Cmax (Mouse, P.O.)) of the same molecule?
Answer: 1710 ng/mL

Question: And the half-life ([1]; KM, mouse, plasma, po, multiple daily dosing 3 × 30 mg/kg PO, read-out: T1/2 (Mouse, P.O.) (converted))?
Answer: 80.4 h

Question: And the Tmax ([1]; KM, mouse, plasma, po, multiple daily dosing 3 × 30 mg/kg PO, read-out: Tmax (Mouse, P.O.))?
Answer: 0.87 h

Question: And the concentration at 0.083 h ([1]; KM, mouse, plasma, multiple PO 30 mg/kg, times 3, 0.083 h)?
Answer: 1.97 µM and 858 ng/mL

Question: And the concentration at 0.25 h ([1]; KM, mouse, plasma, multiple PO 30 mg/kg, times 3, 0.25 h)?
Answer: 2.69 µM and 1170 ng/mL

Question: And the concentration at 0.5 h ([1]; KM, mouse, plasma, multiple PO 30 mg/kg, times 3, 0.5 h)?
Answer: 3.53 µM and 1540 ng/mL

Question: And the concentration at 1 h ([1]; KM, mouse, plasma, multiple PO 30 mg/kg, times 3, 1 h)?
Answer: 3.75 µM and 1630 ng/mL

Question: And the concentration at 3 h ([1]; KM, mouse, plasma, multiple PO 30 mg/kg, times 3, 3 h)?
Answer: 1.96 µM and 855 ng/mL

Question: What about the concentration at 5 h ([1]; KM, mouse, plasma, multiple PO 30 mg/kg, times 3, 5 h) of the same molecule?
Answer: 714 ng/mL and 1.64 µM

Question: And the concentration at 8 h ([1]; KM, mouse, plasma, multiple PO 30 mg/kg, times 3, 8 h)?
Answer: 608 ng/mL and 1.4 µM

Question: What about the concentration at 24 h ([1]; KM, mouse, plasma, multiple PO 30 mg/kg, times 3, 24 h) of the same molecule?
Answer: 570 ng/mL and 1.31 µM

Question: And the AUC [1, 2]?
Answer: 16800 ng·h/mL

Question: And the AUC(0-t) [1, 2]?
Answer: 16800 ng·h/mL

Question: And the CL/F ([1]; KM, mouse, plasma, multiple PO 30 mg/kg, times 3, mean of animals, read-out: CLz/F (converted))?
Answer: 13.1 mL/min/kg

Question: What about the MRT last ([1]; KM, mouse, plasma, multiple PO 30 mg/kg, times 3, mean of animals, read-out: MRT(0-t)) of the same molecule?
Answer: 10.3 h

Question: And the MRT inf ([1]; KM, mouse, plasma, multiple PO 30 mg/kg, times 3, mean of animals, read-out: MRT(0-∞))?
Answer: 116 h

Question: What about the Vd/F ([1]; KM, mouse, plasma, multiple PO 30 mg/kg, times 3, mean of animals, read-out: Vz/F) of the same molecule?
Answer: 34.4 L/kg

Question: And the k el ([1]; KM, mouse, plasma, multiple PO 30 mg/kg, times 3, mean of animals, read-out: λz (converted))?
Answer: 1.42e-05 s⁻¹

Question: What about the “AUMC(0-t)” value [1, 3] of the same molecule?
Answer: 172065.476 h*h*μg/L

Question: And the “AUMC(0-∞)” value [1, 3]?
Answer: 21124940.36 h*h*μg/L

Question: And the C_last [1, 3]?
Answer: 394.2 ng/mL

Question: And the Cav [1, 3]?
Answer: 699.901 ng/mL

Question: And the DF [1, 3]?
Answer: 2.398

Question: And the “R_AUC(t/∞)” value [1, 3]?
Answer: 45.975%

Question: And the “VRT(0-t)” value [1, 3]?
Answer: 76.208 h^2

Question: And the “VRT(0-∞)” value [1, 3]?
Answer: 32368.115 h^2

Question: And the “loss of lipid biosynthesis ([14C]-acetic acid incorporation)” value (M. smegmatis; 0.5 × MIC)?
Answer: ~50%

Question: What about the “loss of lipid biosynthesis ([14C]-acetic acid incorporation)” value (M. smegmatis; 1 × MIC) of the same molecule?
Answer: ~75%

Question: What about the “reduction of incorporation of [3H]-thymidine, [3H]-uridine, [3H]-leucine” value (M. smegmatis; 1 × MIC) of the same molecule?
Answer: 20%

Question: And the “effect on incorporation of [3H]-thymidine, [3H]-uridine, [3H]-leucine” value (M. smegmatis; up to 0.75 × MIC)?
Answer: almost no effect

Question: What about the BCG pTIC6-fbpA MIC (BCG pTIC6-fbpA) of the same molecule?
Answer: 25 µM

Question: With `FC(F)(F)Oc1ccc(C2CC(CN3CCCC3)N2Cc2ccccc2OC(F)(F)F)cc1` (centres unmarked) [BGAz-002] as the molecule, how does the BCG pVV16-mmpL3 MIC (BCG pVV16-mmpL3) read?
Answer: 25 µM
